Results published in patent EP0110748A1, “Derivatives of phenyl-(3-aminopropyl) ketone, their therapeutical use and process for their preparation” (LABORATOIRE L. LAFON Société anonyme dite:, priority 1982, dated 1984).
Where two headings read alike, the source gives them in different places.

Experiments:
[1] = system: chien anesthésié; test: Cardiovascular properties in the anaesthetised dog, I.V. (arterial pressures, heart rate, femoral arterial flow); format: in vivo
From the text: Le tableau II concerne les variations des pressions […]. systolique, diastolique, […]équence cardiaque et du débit artériel fémoral.

[2] = Acute toxicity, DL-50 I.V. in male mice; details: mouse, in vivo, iv, lots de 10 souris mâles
From the text: (§1) Le tableau I concerne la toxicité chez la souris mâle, d'une part, et la dose minimale induisant chez le chien anesthésié une action vasodilatatrice fémorale nette, d'autre part. La DL-50 I.V. a été déterminée sur des lots de 10 souris mâles; la dose minimale vasodilatatrice a été déterminée sur un lot de 5 chiens servant de témoins par rapport à eux-mêmes et recevant chaque dose de produit à tester toutes les 2,5 heures.

[3] = system: chiens; test: Duration of the vasodilator action, repeated intraduodenal administration in dogs; format: in vivo, chien
Method: Trois chiens (poids moyen 11,1 kg) reçoivent le CRL 41 080 par voie intraduodénale à la dose de 5 mg/kg à deux reprises (délai entre les deux administrations : 90 min) puis 6 mg/kg I.D. de LL 1656 et, 2 heures plus tard, une nouvelle administration de 5 mg/kg I.D. de CRL 41 080.

[4] = Solubility in water (observation on the isolated product); format: physicochemical; details: poudre blanche
Method: On fait passer entre -5°C et 0°C pendant 2,5 h un courant d'acide chlorhydrique sec au sein d'une solution de 16,8 g (0,10 mole) de 1,3,5-triméthoxybenzène et de 16,6 g (0,10 mole) de 4-hexaméthylèneimino-butyronitrile en solution dans 115 ml de chlorobenzène anhydre. On abandonne la suspension au froid entre 0°C et +4°C une nuit et on extrait le milieu réactionnel par de l'eau. On porte la phase aqueuse au reflux pendant 1 h, on alcalinise par de la soude concentrée et on extrait le précipité par de l'éther diéthylique pour donner 29,8 g d'une huile jaune pale. Cette huile est traitée dans l'éther diéthylique par de l'éthanol chlorhydrique. […] Finst (^Kofler) = 150°C.

[5] = system: chiens anesthésiés; test: Femoral vasodilator action by intravenous infusion in anaesthetised dogs; format: in vivo, chien
Method: Deux chiens (poids moyen 12,4 kg) anesthésiés au pento- barbital reçoivent le CRL 41 080 par voie intraveineuse, en perfusion de 6 min, aux doses successives de 2 fois 1 mg/kg, puis 2 et 4 mg/kg toutes les 60 min. Pour comparaison, ces animaux reçoivent en fin d'essai une perfusion de 6 mg/kg I.V. d'un produit de référence connu, le LL 1656 précité.

[6] = system: homme; test: Clinical trials in man; format: in vivo; details: voie orale (trois gélules par jour de 100 mg) et voie injectable (I.V. ou I.M., une ampoule par jour de 40 mg)
[7] = system: chiens anesthésiés; test: Vasodilator action by intraduodenal route in anaesthetised dogs; format: in vivo, chien; details: voie intraduodénale
From the text: On mesure la pression artérielle, la fréquence cardiaque, le débit artériel fémoral, le débit artériel vertébral, les températures rectale et cutanée.

[8] = system: chien anesthésié; test: Minimal dose inducing a clear femoral vasodilator action in the anaesthetised dog; format: in vivo; details: Canis lupus familiaris, lot de 5 chiens
From the text: as §1

[9] = Antispasmodic properties (no method described)
[10] = 5 mg/kg I.D., first administration
[11] = 5 mg/kg I.D., second administration
[12] = dose supplémentaire de 5 mg/kg I.D., 2 heures after LL 1656
[13] = I.V., perfusion de 6 min, 2 fois 1 mg/kg puis 2 et 4 mg/kg, deux chiens
[14] = intraduodenal, par voie I.D., '-(d)' = pas d'action vasodilatatrice par voie I.D., read-out: dose minimale induisant chez le chien anesthésié une action vasodilatatrice fémorale par voie I.D.
[15] = iv, par voie I.V., read-out: dose minimale induisant chez le chien anesthésié une action vasodilatatrice fémorale par voie I.V.
[16] = 6 mg/kg I.D., after two administrations of CRL 41 080

COc1cc(OC)c(C(=O)CCCN2CCCCCC2)c(OC)c1 [CRL 41080, chlorhydratede (2,4,6-triméthoxyphényl)-(3-hexaméthylèneiminopropyl)-cétone]
Variation 0,25 h après administration P.A. systolique ([1]; 1 mg/kg I.V., 0,25 h après administration): 0 | Variation 0,25 h après administration P.A. moyenne ([1]; 2 mg/kg I.V., 0,25 h après administration): 0 | LD50 [2]: 96 ± 3 mg/kg | autres paramètres mesurés [3, 10]: ne sont pas modifiés | time at which the effect on débit fémoral has disappeared [3, 10]: 120 min | time at which the effect on débit fémoral has lost half of its intensity [3, 10]: 60 min | time of maximal effect on débit fémoral [3, 10]: 30 min | débit fémoral ([3]; 5 mg/kg I.D., first administration, trois chiens): augmente le débit fémoral | débit vertébral ([3]; 5 mg/kg I.D., repeated): ne diminue pas le débit vertébral | persistence of the effect on débit fémoral [3, 11]: encore présent à 120 min | time of maximal effect on débit fémoral [3, 11]: 30 min | débit fémoral ([3]; 5 mg/kg I.D., second administration (90 min after the first)): effet plus intense sur le débit fémoral | débit fémoral [3, 12]: n'augmente pas davantage le débit fémoral | pression artérielle, fréquence cardiaque [3, 12]: entraîne une hypotension et une bradycardie | solubilité dans l'eau [4]: soluble dans l'eau | débit fémoral [5, 13]: le débit fémoral augmente pendant la durée de la perfusion dès 1 mg/kg | pression artérielle, fréquence cardiaque [5, 13]: ne modifie pas la pression artérielle ni la fréquence cardiaque | résultats des essais cliniques chez l'homme [6]: bons résultats | débit vertébral ([7]; doses successives 0,5 - 10 mg/kg): il semble que le débit vertébral soit diminué, mais cet effet n'est pas statistiquement significatif | débit fémoral ([7]; doses successives 0,5 - 10 mg/kg, quatre chiens): augmente nettement le débit fémoral à partir de la dose de 5 mg/kg | durée de l'effet sur le débit fémoral ([7]; à partir de 5 mg/kg): plus d'une heure | minimal effective dose [8, 14]: 5 mg/kg | minimal effective dose [8, 15]: 1 mg/kg | propriétés antispasmodiques [9]: ne présente pas les propriétés antispasmodiques

COc1cc(OC)c(C(=O)CCCN2CCCCC2)c(OC)c1 [LL 1647, chlorhydratede (2,4,6-triméthoxyphényl)-(3-pipéridi-nopropyl)-cétone]
LD50 [2]: 68 ± 4 mg/kg | minimal effective dose [8, 15]: 5 mg/kg

COc1cc(OC)c(C(=O)CCCN2CCCC2)c(OC)c1 [LL 1656, chlorhydratede (2,4,6-triméthoxyphényl)-(3-pyrrolidinopropyl)-cétone, reference compound]
Variation 0,25 h après administration Fréquence cardiaque ([1]; 6 mg/kg I.V., 0,25 h après administration): 0 | LD50 [2]: 60 ± 2.2 mg/kg | débit fémoral [3, 16]: augmentation de débit fémoral d'intensité moyenne | time of maximal effect on débit fémoral [3, 16]: 120 min | débit fémoral ([5]; perfusion de 6 mg/kg I.V. en fin d'essai, comparison with 1 mg/kg of CRL 41 080): augmente moins le débit fémoral que 1 mg/kg de CRL 41 080 | minimal effective dose [8, 14]: 6 mg/kg | minimal effective dose [8, 15]: 5 mg/kg
